Source: patent US11369644B2, “Microbial consortia” (priority 2018, dated 2022)
Values joined by “and” are separate entries in the source; they are usually repeats but may differ in a detail not shown here. Equal values may be shown once. Positions of bridges follow the written chain, without caps; N, C: chain ends. Non-standard residues stand in square brackets, D forms with d. Residues, ends and D or L forms follow the SMILES beside them. *: point of attachment. Ileψ(thiazoline)Cys = CC[C@H](C)[C@H](N)C1=N[C@H](C(=O)*)CS1; dOrn = NCCC[C@@H](N)C(=O)O

Key:
AM-ST7 = assay: Kirby-Bauer disk diffusion antibiotic susceptibility testing of AM-ST7; format: cell-based, Akkermansia muciniphila; conditions: AM-ST7 susceptible
Description: Antibiotic susceptibility was then determined by standard Kirby-Bauer disk diffusion testing. AM-ST7 was susceptible to the following antibiotics (cm=zone of inhibition): azithromycin (2.5 cm), amoxicillin/clavulanic acid (4 cm), vancomycin (1.5 cm), tetracycline (3 cm), bacitracin (2 cm), and levofloxacin (1.2 cm).

FP-ST38 = assay: Kirby-Bauer disk diffusion antibiotic susceptibility testing of FP-ST38; format: cell-based, Faecalibacterium prausnitzii; conditions: FP-ST38 susceptible
Description: Antibiotic susceptibility was determined by standard Kirby-Bauer disk diffusion testing. FP-ST38 is susceptible to the following antibiotics (cm=zone of inhibition): amoxicillin/clavulanic acid (2.5 cm), ceftriaxone (2 cm), tetracycline (5 cm), amikacin (2 cm), and bacitracin (3.4 cm).

LC-ST100 = assay: Kirby-Bauer disk diffusion antibiotic susceptibility testing of LC-ST100; format: cell-based, Lactobacillus crispatus; conditions: LC-ST100 susceptible
Description: Antibiotic susceptibility was determined by standard Kirby-Bauer disk diffusion testing. LC-ST100 is susceptible to the following antibiotics (cm=zone of inhibition): azithromycin (3.5 cm), amoxicillin/clavulanic acid (5 cm), clindamycin (4 cm), vancomycin (3.8 cm), ceftriaxone (3.5 cm), tetracycline (4.2 cm), ampicillin (4 cm), bacitracin (2.5 cm).

A. muciniphila ST7 = assay: Antibiotic resistance by broth solution method (MIC), A. muciniphila ST7; format: cell-based, Akkermansia muciniphila
Description: (§1) Antibiotic resistance in this example was determined using the broth solution method.
(§2) Antibiotic resistance in this example was determined using the broth solution method. This procedure involved preparing two-fold dilutions of antibiotics (e.g., 1, 2, 4, 8, and 16 μg/mL) in a liquid growth medium dispensed in test tubes. The antibiotic-containing tubes were inoculated with a standardized bacterial suspension of about 1-5×10^5 CFU/mL. Following overnight incubation at 37° C., the tubes were examined for visible bacterial growth as evidenced by turbidity. The lowest concentration of antibiotic that prevented growth represented the minimal inhibitory concentration (MIC).

F. prausnitzii ST38 = assay: Antibiotic resistance by broth solution method (MIC), F. prausnitzii ST38; format: cell-based, Faecalibacterium prausnitzii
Description: as §1, §2

L. crispatus ST100 = assay: Antibiotic resistance by broth solution method (MIC), L. crispatus ST100; format: cell-based, Lactobacillus crispatus
Description: as §1, §2

Rho. glutinis DSM 70821 = assay: Disk diffusion test for antimicrobial activity (DIN 58940-3) against Rho. glutinis; format: cell-based; conditions: test strain 1 (Rho. glutinis DSM 70821); positive control 2 μg Cycloheximide/disc; 24 h at 25° C.; disk diameter = 6 mm
Description: (§3) Generally, all samples were provided in lyophilized from. Subsets of each sample were suspended in solvent for analysis by LC/MS and GC/MS. Following these analyses, further subsets of each sample were extracted and fractionated (to enrich the medium polar range). Fractions were analyzed by LC/MS. Cell extracts were analyzed in a bioassay against Candida sp. and Rhodotorula sp. in a disk diffusion assay at 3 concentrations.
(§4) Preparative Cell Extraction. Lyophilized cells were extracted prior to fractionation/bio assay to remove cell wall debris. The cells were adjusted to a final concentration of 50 mg/mL (Table 9) and sonicated for 15 min followed by vortexing for 2 min and a second sonication step of 15 min. Afterwards, 10 mL of the suspension were transferred to another vial an centrifuged at 10,000 RCF for 5 min. The supernatant was transferred to a new vial.
(§5) Disk diffusion test. Disk diffusion tests for antimicrobial activity were prepared according to DIN 58940-3 (DIN-Taschenbuch 222, 5. Edition) using the strains 00549fBCD000864 (Rho. glutinis, test strain #1) DSM 70821 and 00539fDSM011226 (Ca. glabrata, test strain #2) DSM 11226. […]
(§6) The test strains were diluted to 1.000.000 cfu/mL using saline solution. […] After 24 h the zone of inhibition was measured and recorded in Table 10 below.

Ca. glabrata DSM 11226 = assay: Disk diffusion test for antimicrobial activity (DIN 58940-3) against Ca. glabrata; format: cell-based; conditions: test strain 2 (Ca. glabrata DSM 11226); positive control 2 μg Cycloheximide/disc; 24 h at 25° C.; disk diameter = 6 mm
Description: as §3, §4, §5, §6

amoxicillin/clavulanic acid
zone of inhibition (AM-ST7): 4 cm | zone of inhibition (FP-ST38): 2.5 cm | zone of inhibition (LC-ST100): 5 cm

CC[C@H]1OC(=O)[C@H](C)[C@@H](O[C@H]2C[C@@](C)(OC)[C@@H](O)[C@H](C)O2)[C@H](C)[C@@H](O[C@@H]2O[C@H](C)C[C@H](N(C)C)[C@H]2O)[C@](C)(O)C[C@@H](C)CN(C)[C@H](C)[C@@H](O)[C@]1(C)O [azithromycin]
zone of inhibition (AM-ST7): 2.5 cm | zone of inhibition (LC-ST100): 3.5 cm | antibiotic susceptibility (A. muciniphila ST7): susceptible | antibiotic susceptibility (F. prausnitzii ST38): susceptible | antibiotic susceptibility (L. crispatus ST100): susceptible

CCC[C@@H]1C[C@@H](C(=O)N[C@@H]([C@H]2O[C@H](SC)[C@H](O)[C@@H](O)[C@H]2O)[C@H](C)Cl)N(C)C1 [clindamycin]
zone of inhibition (LC-ST100): 4 cm

CC1(C)S[C@@H]2[C@H](NC(=O)[C@H](N)c3ccccc3)C(=O)N2[C@H]1C(=O)O [ampicillin]
zone of inhibition (LC-ST100): 4 cm | antibiotic susceptibility (L. crispatus ST100): susceptible

CC[C@H](C)[C@H](N)C1=N[C@H](C(=O)N[C@@H](CC(C)C)C(=O)N[C@H](CCC(=O)O)C(=O)N[C@H](C(=O)N[C@H]2CCCCNC(=O)[C@H](CC(N)=O)NC(=O)[C@@H](CC(=O)O)NC(=O)[C@H](Cc3cnc[nH]3)NC(=O)[C@@H](Cc3ccccc3)NC(=O)[C@H]([C@@H](C)CC)NC(=O)[C@@H](CCCN)NC2=O)[C@@H](C)CC)CS1 [bacitracin] ({Ileψ(thiazoline)Cys}-L[dE]IK[dOrn]I[dF]H[dD]N; lactam 4-C)
zone of inhibition (AM-ST7): 2 cm | zone of inhibition (FP-ST38): 3.4 cm | zone of inhibition (LC-ST100): 2.5 cm

NCC[C@H](O)C(=O)N[C@@H]1C[C@H](N)[C@@H](O[C@H]2O[C@H](CN)[C@@H](O)[C@H](O)[C@H]2O)[C@H](O)[C@H]1O[C@H]1O[C@H](CO)[C@@H](O)[C@H](N)[C@H]1O [amikacin]
zone of inhibition (FP-ST38): 2 cm | antibiotic susceptibility (F. prausnitzii ST38): susceptible

CN[C@H](CC(C)C)C(=O)N[C@H]1C(=O)N[C@@H](CC(N)=O)C(=O)N[C@H]2C(=O)N[C@H]3C(=O)N[C@H](C(=O)N[C@H](C(=O)O)c4cc(O)cc(O)c4-c4cc3ccc4O)[C@H](O)c3ccc(c(Cl)c3)Oc3cc2cc(c3O[C@@H]2O[C@H](CO)[C@@H](O)[C@H](O)[C@H]2O[C@H]2C[C@](C)(N)[C@H](O)[C@H](C)O2)Oc2ccc(cc2Cl)[C@H]1O [vancomycin]
zone of inhibition (AM-ST7): 1.5 cm | zone of inhibition (LC-ST100): 3.8 cm | antibiotic susceptibility (F. prausnitzii ST38): susceptible | antibiotic susceptibility (L. crispatus ST100): susceptible

C[C@@H]1C[C@@H]([C@H](O)CC2CC(=O)NC(=O)C2)C(=O)[C@@H](C)C1 [Cycloheximide]
Diameter inhibition zone [mm] Pos. Control (Rho. glutinis DSM 70821): 14 mm and 13 mm | Diameter inhibition zone [mm] Pos. Control (Ca. glabrata DSM 11226): 11 mm and 10 mm and 9 mm

CO/N=C(\C(=O)N[C@@H]1C(=O)N2C(C(=O)O)=C(CSc3nc(=O)c(=O)[nH]n3C)CS[C@H]12)c1csc(N)n1 [ceftriaxone]
zone of inhibition (FP-ST38): 2 cm | zone of inhibition (LC-ST100): 3.5 cm

C[C@H]1COc2c(N3CCN(C)CC3)c(F)cc3c(=O)c(C(=O)O)cn1c23 [levofloxacin]
zone of inhibition (AM-ST7): 1.2 cm

CN(C)[C@@H]1C(O)=C(C(N)=O)C(=O)[C@@]2(O)C(O)=C3C(=O)c4c(O)cccc4[C@@](C)(O)[C@H]3C[C@@H]12 [tetracycline]
zone of inhibition (AM-ST7): 3 cm | zone of inhibition (FP-ST38): 5 cm | zone of inhibition (LC-ST100): 4.2 cm
